Data taken from a melting point compilation (Tetko et al.; mined from patent text by program, amines drawn as free bases though some values may be those of a salt).

Row | SMILES | melting point
1 | CC(C)(C)OC(=O)NN(Cc1ccc(Cl)cc1)C(=O)OCC1c2ccccc2-c2ccccc21 | 53 to 55 °C
2 | Cc1nc2c(N)nc3c(c2n1CCOCCCc1cccnc1)CCCC3 | 140 to 141 °C
3 | Clc1ccc2nc(Cl)oc2c1 | 40 to 44 °C
4 | Clc1ccc(Oc2cncc3sc(-c4ccco4)cc23)cc1 | 75 to 77 °C
5 | CC(C)=CCOc1ccc(C(=O)C=Cc2ccc(F)cc2)c(O)c1 | 96 to 97 °C
6 | O=C(O)Cn1c(=S)c2ccccc2n(Cc2ccc(Cl)c(Cl)c2)c1=O | 237 to 238 °C
7 | CC(C)(CCc1ccc(NC=NO)cc1)CN1CCCC1 | 120 to 122 °C
8 | COC(=O)c1nc(Cl)c(N2CCCC2)nc1N | 245 to 248 °C
9 | CNC(=O)Nc1cc2c(s1)CCCC2NC(=O)NC (stereo not given) | 233 to 234 °C
10 | NC(=O)c1ccccc1N1CCN(Cc2cn3cc(Cl)ccc3n2)CC1 | 178 to 179 °C
11 | CN(CCCC(C(N)=O)(c1ccccc1)c1ccccc1)CCc1ccc(CN)cc1 | 139 to 142 °C
12 | NC(=O)c1ncn2c1[C@@H]1CCN1C(=O)c1cc(F)ccc1-2 | 223 to 224 °C
13 | Cc1cccc(NC(=O)NC2N=C(c3ccccc3)c3ccsc3N(C)C2=O)c1 (stereo not given) | 128 to 130 °C
14 | O=C1CCCC(CN2CC=C(c3ccccc3)CC2)C1 (stereo not given) | 56 to 59 °C
15 | CC(C)(SCC(=O)O)C(NS(=O)(=O)c1ccc(Oc2ccc(F)cc2)cc1)C(=O)O (stereo not given) | 69 °C
16 | c1cnc2cc3c(cc2n1)CCNCC3 | 114 to 116 °C

Row | SMILES | melting point
17 | Cc1cc(C)c2[nH]c(=O)n(CCCN3CC=C(c4ccc(Cl)cc4)CC3)c(=O)c2c1 | 224 to 226 °C
18 | CC(C)Cc1ccc(CCc2cc3c(s2)NC(=S)CN=C3c2ccccc2Cl)cc1 | 180 to 182 °C
19 | CCOC(=O)N1CCC2(CC1)C(=O)OC(=O)N2c1ccccc1 | 211 °C
20 | Nc1c(S)ccc2ccccc12 | 36 to 37 °C
21 | CC(=O)C1(Nc2ccc(C)cc2)CCN(CCc2ccccc2)CC1 | 134 °C
22 | CCCCCCC(C)(C)c1ccc(C2CCCC(=O)C2)c(O)c1 (stereo not given) | 87 °C
23 | CN(c1ccoc1)c1n[nH]c2ncnc(Nc3cccc(Cl)c3)c12 | 207 to 209 °C
24 | COc1ccc(CNc2nc(N)n3nc(-c4ccco4)nc3n2)cc1 | 238 to 239 °C
25 | CSC(=NS(=O)(=O)c1ccccc1Cl)SC | 119 to 123 °C
26 | O=C(O)C(CN1CCCC1)C(C(=O)O)P(=O)(O)O (stereo not given) | 122 to 124 °C
27 | Cc1ccc(NC(=O)c2ccc(/C=C/C(=O)NO)cc2)cc1Nc1nc(-c2cccnc2)cs1 | 154 °C
28 | COC(=O)c1ccc(C(N)=O)cc1Cl | 154 to 156 °C
29 | O=[N+]([O-])c1ccccc1NC1CCCCC1 | 105 to 107 °C
30 | CCOC(=S)NCCN1CCC(Nc2nc3ccccc3n2Cc2ccc(F)cc2)CC1 | 149 °C
31 | O=C(O)c1cnc2ccc(Cl)cc2c1-c1ccccc1 | 269 to 270 °C

More lines, now with the values ahead:

Row | melting point | SMILES
32 | 155 to 157 °C | O=S1N=C(NCCCN(Cc2ccsc2)c2ccccn2)C(NCc2ccncc2)=N1 (stereo not given)
33 | 139 to 140 °C | Cc1cc(F)ccc1Nc1c(C(=O)C(C)C)cnc2c(CO)cccc12
34 | 73 °C | CCCCNc1cncc(C#N)c1
35 | 256 to 257 °C | O=C(Nc1nc2ccc(C(F)(F)F)cc2s1)c1c(F)cccc1F
36 | 126 to 127 °C | Cc1ccc(Oc2cnc(C#N)c(C#N)n2)cc1
37 | > 250 °C | O=C(Nc1ccc(O)cc1)C(=O)Nc1ccc(O)cc1
38 | 143 to 145 °C | Cc1nc(-c2ccccc2)cc(-c2cccc([N+](=O)[O-])c2)c1C(=O)NCCN(C)C
39 | 162 to 163 °C | O=C(O)[C@H](CCCCO)N1C(=O)c2ccccc2C1=O
40 | 194 °C | CC(C)C(c1ccc2[nH]c(=O)cnc2c1)n1ccnc1 (stereo not given)
41 | 306 to 308 °C | C=CCn1c(=O)c2cc(C(=O)O)cn2c2ccccc21
42 | 115 to 116 °C | CC(C)=CCc1c(O)ccc(CCCc2ccc(O)cc2)c1O
43 | 171 to 172 °C | Brc1ccc(C=Cc2cc3ccccc3s2)s1
44 | 201 to 202 °C | COC(=O)c1cc2c([N+](=O)[O-])csc2nc1C1=NC(C)(C(C)C)C(=O)N1 (stereo not given)
45 | 175 to 177 °C | COc1cc2c(cc1OCc1ccccc1)CC(C)(C)N(C(=O)c1cc(OC)c(OC)c(OC)c1)C2C (stereo not given)
46 | 87.6 to 89 °C | CC1=C(c2ccccc2)C(=O)N(C(C)(C)C(O)c2cc(F)cc(F)c2)CO1 (stereo not given)
47 | 193 to 195 °C | Cc1nn(C)c(N)c1C#N
48 | 124 °C | O=[N+]([O-])c1ccc(C2CCOCC2)cc1
49 | 156 to 158 °C | OC(CNC1=NCCN1)c1ccc(Cl)cc1 (stereo not given)
50 | 84 to 85 °C | c1ccc(N2CC3CCC(C2)O3)cc1
51 | 206 to 207 °C | CCOC(=O)N1CCC(c2[nH]nc3c2C(=O)c2c(NC(=O)NN4CCOCC4)cccc2-3)CC1
52 | 177 to 178 °C | Cc1cc(C(=O)NCO)ncc1C(c1c(F)ccc(F)c1F)S(=O)(=O)c1ccc(Cl)cc1 (stereo not given)
53 | 180 to 183 °C | Nc1ncnc2c1ncn2Cc1oc2ccc(F)cc2c(=O)c1-c1cccc(F)c1

Row | melting point | SMILES
54 | 84 to 85 °C | Cc1ccc(-c2nc(Cl)cc(Cl)n2)cc1
55 | 230 to 235 °C | Cc1ccc(C2=Cc3cc(C(=O)Nc4ccc(CN(C)C5CCOCC5)cc4)ccc3OC2)cc1
56 | 81 to 91 °C | O=C(O)C(=O)c1ccco1
57 | 75 to 77 °C | CCOC(=O)C(C)(C)c1nsc2ccc([N+](=O)[O-])cc12
58 | 139 to 142 °C | O=C(OC1CCCCC1)C1=C(c2ccccc2)C(c2ccccc2)OC1=O (stereo not given)
59 | 97 to 99 °C | CC(C)c1c(CO)c(-c2ccc(F)cc2)c2n1CCCC2
60 | 101 to 103 °C | COc1ccc(C2=NN(C3CCN(C(=O)[C@H](C)N)CC3)C(=O)[C@@H]3CC=CC[C@H]23)cc1OC
61 | 230 to 233 °C | O=C1N=C(N2CCNCC2)SC1=Cc1cccc(-c2cc(F)c(O)c(C34CC5CC(CC(C5)C3)C4)c2)c1
62 | 175 to 177 °C | CC(N=C(NN)NN)C(=O)O (stereo not given)
63 | 149 to 151 °C | CC(C)OCCCNC(=O)CN1C(=O)C2(COc3cc4c(cc32)CCO4)c2ccccc21 (stereo not given)
64 | 90 to 92 °C | O=C(c1ccccc1)N1CCCSC1=C[N+](=O)[O-]
65 | 309 to 310 °C | CCOC(=O)c1cnc2nc3ccccc3n2c1O
66 | 104 to 106 °C | COC(=O)c1cc([N+](=O)[O-])c(Cl)c([N+](=O)[O-])c1
67 | 172 to 174 °C | CCCCCCOCC1CN(c2cc3c(cc2F)c(=O)c(C(=O)O)cn3CC)CCN1C (stereo not given)
68 | 64 to 65 °C | CCOC(=O)CCCCCCn1cnc2ccncc21
69 | 70 °C | CN(CCCNc1ncc(Cc2ccc(F)cc2)c(=O)[nH]1)c1ccccn1
70 | 158 °C | COc1ccc(C(=O)Nc2ccc3ccc(S(=O)CCN(C)C)nc3n2)cc1 (stereo not given)
71 | 251 °C | CCc1ccc2cc(C3(Cn4ccnc4)OCCO3)ccc2c1
72 | 275 °C | Nc1ccc(-c2ccc(N)c([N+](=O)[O-])c2)cc1[N+](=O)[O-]
73 | 62 to 64 °C | CC(CO)N1CCN(c2ccccn2)CC1 (stereo not given)
74 | 115 to 116 °C | C#CCNC(=NCCSCc1ncccc1Cl)NC#N
75 | 151 °C | COC(=O)C1(C(=O)OC)CN(C(=O)OC(C)(C)C)c2cc([N+](=O)[O-])c3ccccc3c21
